In US7691806B2, “Repeat sequence protein polymer active agent congjugates, methods and uses” (priority 2003, dated 2010):

Key:
Bacillus subtilis 168 = assay: Test-tube based antimicrobial assay of purified AMP-SELP fusions; assay type: cell-based; details: 1.25 mg/ml in water, equal volume of 1:500 diluted culture, 37° C., after 4 hours
Description: (§1) Culture supernatant samples from post-induction time-points from a fermentation of Cecropin A-Melettin (CAM) fused to the N-terminus of SELP47K were tested for growth inhibition of E. coli and B. subtilis. […] Purified CAM-SELP47K (SEQ. ID. NO.32) and MBI-SELP47K (SEQ. ID. NO. 33) biomaterials were similarly tested for their antimicrobial activity. Lyophilized material was dissolved in water at 1.25 mg/ml and used in a test-tube based assay performed as follows: Bacillus subtilis 168 and Escherichia coli MG1655 were each grown from single colonies in 5 ml volumes of LB in test tubes, 37° C., 250 rpm, 16 hrs. Cultures were diluted 1:500 in Terrific broth. Equal volumes of diluted culture and purified AMP-SELP fusions described above were combined in sterile glass test-tubes (1 ml total volume in 5 ml tubes), in duplicate, and incubated at 37° C., 250 rpm. Purified SELP47K was used as a negative control.

Escherichia coli MG1655 = assay: as above; assay type: cell-based; details: 1.25 mg/ml in water, equal volume of 1:500 diluted culture, 37° C., after 4 hours
Description: as §1

For “SELP47K: genetically engineered silk-elastin polymer, head-[(GAGAGS)2(GVGVP)3GKGVP(GVGP)4(GAGAGS)2]13-tail (SEQ ID NO. 19), 886 amino acids”, the growth in tubes (Bacillus subtilis 168) was “growth was clearly visible” and the growth in tubes (Escherichia coli MG1655) was “growth was clearly visible”.
